Experimental data: patent US20080021030A1, “Substituted Pyrazoles As Ppar Agonists” (priority 2003, published 2008)

Tests used:
hPPAR gamma = molecular target: T1, hPPAR gamma (Homo sapiens, UniProt P37231); test: Transient transfection (transactivation) assay in CV-1 cells, GAL4-PPAR LBD chimera, SPAP reporter; format: cell-based; details: read-out: EC50 μM HPPARγ
T1 construct: expressed in transfected cells; host or cells: CV-1 cells
T1 sequence (P37231 238-503 limits assumed): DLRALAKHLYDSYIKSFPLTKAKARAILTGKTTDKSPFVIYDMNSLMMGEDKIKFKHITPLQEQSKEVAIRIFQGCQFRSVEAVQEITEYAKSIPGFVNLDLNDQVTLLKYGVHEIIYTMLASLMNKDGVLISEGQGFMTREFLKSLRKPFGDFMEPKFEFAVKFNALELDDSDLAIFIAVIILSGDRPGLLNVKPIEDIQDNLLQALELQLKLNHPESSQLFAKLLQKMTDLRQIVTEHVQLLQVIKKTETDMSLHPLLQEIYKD
Outline: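 CV-1 cells were transiently transfected with a GAL4 DBD–human PPARγ LBD chimera, a 5×GAL4-site SPAP reporter and β-galactosidase. After 16 h, the cells were exposed to compound in DME with 10% delipidated FCS for 24 h. Alkaline phosphatase and β-galactosidase activities were then measured in cell extracts.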

hPPAR alpha = molecular target: T2, hPPAR alpha (Homo sapiens, UniProt Q07869); test: as above; format: cell-based; details: read-out: EC50 μM HPPARα
T2 construct: expressed in transfected cells; host or cells: CV-1 cells
T2 sequence (Q07869 239-466 limits assumed): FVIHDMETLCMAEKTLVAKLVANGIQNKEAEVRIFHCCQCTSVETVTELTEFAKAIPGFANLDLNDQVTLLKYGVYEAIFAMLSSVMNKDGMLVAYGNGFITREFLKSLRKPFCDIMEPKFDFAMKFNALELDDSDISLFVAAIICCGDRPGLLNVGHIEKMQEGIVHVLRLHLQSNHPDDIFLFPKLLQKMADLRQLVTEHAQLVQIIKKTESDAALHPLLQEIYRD
Outline: (§1)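 CV-1 cells transiently co-transfected with GAL4 DBD–human PPAR LBD chimera plus 5×GAL4-site SPAP reporter and β-galactosidase; after 16 h, compound added in DME with 10% delipidated FCS for 24 h. SPAP activity normalised to β-galactosidase; values in μM.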

hPPAR delta = molecular target: T3, hPPAR delta (Homo sapiens, UniProt Q03181); test: as above; format: cell-based; details: read-out: EC50 μM HPPARδ
T3 construct: expressed in transfected cells; host or cells: CV-1 cells
T3 sequence (Q03181 211-439 limits assumed): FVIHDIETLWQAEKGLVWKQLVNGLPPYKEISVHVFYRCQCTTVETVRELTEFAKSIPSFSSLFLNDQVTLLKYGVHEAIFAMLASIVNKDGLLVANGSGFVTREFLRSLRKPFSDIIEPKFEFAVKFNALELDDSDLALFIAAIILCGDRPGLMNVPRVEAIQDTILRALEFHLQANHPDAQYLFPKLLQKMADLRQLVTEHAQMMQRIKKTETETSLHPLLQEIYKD
Outline: as §1

| SMILES | EC50 (hPPAR gamma) | EC50 (hPPAR alpha) | EC50 (hPPAR delta) | melting point |
| --- | --- | --- | --- | --- |
| CCCCc1ccc(-c2cc(C(=O)NCc3cc(C)c(OC(C)(C)C(=O)O)c(Cl)c3)nn2C)cc1 [Example 38, 2-{4-[({[5-(4-butylphenyl)-1-methyl-1H-pyrazol-3-yl]carbonyl}amino)methyl]-2-chloro-6-methylphenoxy}-2-methylpropanoic acid] | 0.072 µM | 0.01 µM | > 25 µM | 74 °C |
| CCCCc1ccc(-c2cc(C(=O)NCc3cc(C)c(OC(C)(C)C(=O)O)c(C)c3)nn2C)cc1 [Example 37, 2-{4-[({[5-(4-butylphenyl)-1-methyl-1H-pyrazol-3-yl]carbonyl}amino)methyl]-2,6-dimethylphenoxy}-2-methylpropanoic acid] | 0.021 µM | 0.006 µM | 0.449 µM | 72 °C |
